Where two headings read alike, the source gives them in different places.
Key:
Phaedon cochleariae = Phaedon cochleariae Larvae - Test (PHAECO spray application); type: in vivo
Description: Phaedon cochleariae—Test; (PHAECO Spray Application)
Solvent: 78 parts by weight of acetone • 1.5 parts by weight of N,N-dimethylformamide Emulsifier: 0.5 parts by weight of alkylarylpolyglycolether
Once dry, the leaf discs are infested with mustard beetle larvae (Phaedon cochleariae).

Myzus persicae = Myzus persicae - Test (MYZUPE spray application); type: in vivo
Description: Myzus persicae—Test; (MYZUPE Spray Application)
Chinese cabbage (Brassica pekinesis) leaf—disks infected with all instars of the green peach aphid (Myzus persicae), are sprayed with a preparation of the active ingredient at the desired concentration.
100% means that all aphids have been killed; 0% means that none of the aphids have been killed.

Tetranychus urticae = Tetranychus urticae - Test; OP-resistant (TETRUR spray application); type: in vivo
Description: Tetranychus urticae—Test; OP-Resistant (TETRUR Spray Application)
French beans (Phaseolus vulgaris) which are heavily infested with all stages of the two spotted spidermite (Tetranychus urticae), are sprayed with a preparation of the active ingredient at the desired concentration.

Spodoptera frugiperda = test: whole plant or invertebrate
Procedure: Spodoptera frugiperda—Test (SPODFR Spray Application)
Solvent: 78.0 parts by weight acetone • 1.5 parts by weight N,N-dimethylformamide Emulsifier: 0.5 parts by weight alkylarylpolyglycolether
Maize (Zea mais) leaf sections are sprayed with a preparation of the active ingredient of the desired concentration. Once dry, the leaf sections are infested with larvae of the fall armyworm (Spodoptera frugiperda).
After the specified period of time, the mortality in % is determined. 100% means that all caterpillars have been killed and 0% means that none of the caterpillars have been killed.

[1] = Phaedon cochleariae, 144 h, read-out: Mortality in % after 6 days obs.
[2] = Myzus persicae, 144 h, read-out: Mortality in % after 6 days obs.
[3] = Tetranychus urticae, 48 h, read-out: Mortality in % after 2 days obs.
[4] = Spodoptera frugiperda, 144 h, read-out: Mortality in % after 6 days obs.
[5] = Phaedon cochleariae, 48 h, read-out: Mortality in % after 2 days obs.
[6] = Myzus persicae, 24 h, read-out: Mortality in % after 1 day obs.
[7] = Tetranychus urticae, 144 h, read-out: Mortality in % after 6 days obs.
[8] = Spodoptera frugiperda, 48 h, read-out: Mortality in % after 2 days obs.
[9] = 100 g/ha, single active ingredient, 6 days
[10] = 0.8 g/ha, single active ingredient, 6 days
[11] = 4 g/ha, single active ingredient, 6 days

## Cc1c(F)c(F)c(COC(=O)[C@@H]2[C@H](/C=C(\Cl)C(F)(F)F)C2(C)C)c(F)c1F (racemic) [B-3A.43, Tefluthrin]
Phaedon cochleariae; [1]
  mortality at 20 g/ha: 0%
Myzus persicae; [2]
  mortality at 4 g/ha: 0%
Tetranychus urticae; [3]
  mortality at 20 g/ha: 0%
Spodoptera frugiperda; [4]
  mortality at 0.8 g/ha: 0%
  mortality at 4 g/ha: 0%

## CC(C)c1ccccc1CN(C(=O)c1c(C(F)F)nn(C)c1F)C1CC1 [A-1, N-cyclopropyl-3-(difluoromethyl)-5-fluoro-N-(2-isopropylbenzyl)-1-methyl-1H-pyrazole-4-carboxamide]
Phaedon cochleariae; [5]
  mortality at 100 g/ha: 0%
Phaedon cochleariae; [1]
  mortality at 100 g/ha: 0%
Myzus persicae; [6]
  mortality at 100 g/ha: 0%
Myzus persicae; [2]
  mortality at 100 g/ha: 0%
Tetranychus urticae; [3]
  mortality at 100 g/ha: 0%
Tetranychus urticae; [7]
  mortality at 100 g/ha: 0%
Spodoptera frugiperda; [8]
  mortality at 100 g/ha: 0%
Spodoptera frugiperda; [4]
  mortality at 100 g/ha: 0%

## CC(C)c1ccc(Cl)cc1CN(C(=O)c1c(C(F)F)nn(C)c1F)C1CC1 [A-5, N-(5-chloro-2-isopropylbenzyl)-N-cyclopropyl-3-(difluoromethyl)-5-fluoro-1-methyl-1H-pyrazole-4-carboxamide]
Phaedon cochleariae; Phaedon cochleariae, 48 h, 100 g/ha, read-out: Mortality in % after 2 days obs.
  mortality at 100 g/ha: 0%
Phaedon cochleariae; Phaedon cochleariae, 48 h, 150 g/ha, read-out: Mortality in % after 2 days obs.
  mortality at 150 g/ha: 0%
Phaedon cochleariae; Phaedon cochleariae, 144 h, 100 g/ha, read-out: Mortality in % after 6 days obs.
  mortality at 100 g/ha: 0%
Phaedon cochleariae; Phaedon cochleariae, 144 h, 200 g/ha, read-out: Mortality in % after 6 days obs.
  mortality at 200 g/ha: 0%
Myzus persicae; Myzus persicae, 24 h, 100 g/ha, read-out: Mortality in % after 1 day obs.
  mortality at 100 g/ha: 0%
Myzus persicae; Myzus persicae, 24 h, 200 g/ha, read-out: Mortality in % after 1 day obs.
  mortality at 200 g/ha: 0%
Myzus persicae; Myzus persicae, 144 h, 100 g/ha, read-out: Mortality in % after 6 days obs.
  mortality at 100 g/ha: 0%
Myzus persicae; Myzus persicae, 144 h, 200 g/ha, read-out: Mortality in % after 6 days obs.
  mortality at 200 g/ha: 0%
Tetranychus urticae; Tetranychus urticae, 144 h, 200 g/ha, single active ingredient, 6 days, read-out: Mortality in % after 6 days obs.
  mortality at 200 g/ha: 0%
Spodoptera frugiperda; [8]
  mortality at 100 g/ha: 0%
  mortality at 200 g/ha: 0%
Spodoptera frugiperda; [4]
  mortality at 100 g/ha: 0%
  mortality at 200 g/ha: 0%

## CC(C)c1ccc(F)cc1CN(C(=O)c1c(C(F)F)nn(C)c1F)C1CC1 [A-7, N-cyclopropyl-3-(difluoromethyl)-5-fluoro-N-(5-fluoro-2-isopropylbenzyl)-1-methyl-1H-pyrazole-4-carboxamide]
Phaedon cochleariae; [5]
  mortality at 100 g/ha: 0%
  mortality at 150 g/ha: 0%
Phaedon cochleariae; [1]
  mortality at 100 g/ha: 0%
  mortality at 200 g/ha: 0%
Myzus persicae; [6]
  mortality at 100 g/ha: 0%
  mortality at 200 g/ha: 0%
Myzus persicae; [2]
  mortality at 100 g/ha: 0%
  mortality at 200 g/ha: 0%
Tetranychus urticae; [3]
  mortality at 100 g/ha: 0%
  mortality at 150 g/ha: 0%
  mortality at 200 g/ha: 0%
Spodoptera frugiperda; [8]
  mortality at 100 g/ha: 0%
  mortality at 150 g/ha: 0%
Spodoptera frugiperda; [4]
  mortality at 100 g/ha: 0%

## Cc1ccc(C(C)C)c(CN(C(=O)c2c(C(F)F)nn(C)c2F)C2CC2)c1 [A-12, N-cyclopropyl-3-(difluoromethyl)-5-fluoro-N-(2-isopropyl-5-methylbenzyl)-1-methyl-1H-pyrazole-4-carboxamide]
Phaedon cochleariae; [5]
  mortality at 100 g/ha: 0%
Phaedon cochleariae; [1]
  mortality at 100 g/ha: 0%
  mortality at 200 g/ha: 0%
Myzus persicae; [6]
  mortality at 100 g/ha: 0%
  mortality at 200 g/ha: 0%
Myzus persicae; [2]
  mortality at 100 g/ha: 0%
  mortality at 200 g/ha: 0%
Tetranychus urticae; [3]
  mortality at 100 g/ha: 0%
  mortality at 150 g/ha: 0%
Tetranychus urticae; [7]
  mortality at 100 g/ha: 0%
Spodoptera frugiperda; [8]
  mortality at 100 g/ha: 0%
  mortality at 200 g/ha: 0%
Spodoptera frugiperda; [4]
  mortality at 100 g/ha: 0%

## Cn1nc(C(F)F)c(C(=O)N(Cc2cc(Cl)ccc2C(F)(F)F)C2CC2)c1F [A-15, N-[5-chloro-2-(trifluoromethyl)benzyl]-N-cyclopropyl-3-(difluoromethyl)-5-fluoro-1-methyl-1H-pyrazole-4-carboxamide]
Phaedon cochleariae; [5]
  mortality at 500 g/ha: 0%
Phaedon cochleariae; [1]
  mortality at 500 g/ha: 0%
Myzus persicae; [6]
  mortality at 500 g/ha: 0%
Myzus persicae; [2]
  mortality at 500 g/ha: 0%
Tetranychus urticae; [3]
  mortality at 500 g/ha: 0%
Tetranychus urticae; [7]
  mortality at 500 g/ha: 0%
Spodoptera frugiperda; [4]
  mortality at 500 g/ha: 0%

## CNC(=O)O/N=C/C(C)(C)SC [B-1A.2, Aldicarb]
Phaedon cochleariae; 100 g/ha
  Mortality in % after 6 days obs.: 0%
Myzus persicae; 20 g/ha
  Mortality in % after 6 days obs.: 80%
Myzus persicae; 100 g/ha
  Mortality in % after 1 day obs.: 0%
Spodoptera frugiperda; 100 g/ha
  Mortality in % after 2 days obs.: 0%
  Mortality in % after 6 days obs.: 33%

## CS/C(C)=N\OC(=O)N(C)SN(C)C(=O)O/N=C(\C)SC [B-1A.21, Thiodicarb]
Myzus persicae; 100 g/ha
  Mortality in % after 6 days obs.: 0%
Tetranychus urticae; [9]
  Mortality in % after 6 days obs.: 0%
Spodoptera frugiperda; 4 g/ha
  Mortality in % after 6 days obs.: 0%
Spodoptera frugiperda; 20 g/ha
  Mortality in % after 6 days obs.: 33%

## CC1(C)[C@H](/C=C(\Cl)C(F)(F)F)[C@@H]1C(=O)O[C@@H](C#N)c1cccc(Oc2ccccc2)c1 [B-3A.12, L-Cyhalothrin]
Phaedon cochleariae; 0.8 g/ha
  Mortality in % after 2 days obs.: 67%
Tetranychus urticae; 0.16 g/ha
  Mortality in % after 2 days obs.: 0%
Tetranychus urticae; 0.8 g/ha
  Mortality in % after 2 days obs.: 70%
Tetranychus urticae; [10]
  Mortality in % after 6 days obs.: 70%
Spodoptera frugiperda; 0.8 g/ha
  Mortality in % after 6 days obs.: 83%

## CN1COCN(Cc2cnc(Cl)s2)/C1=N\[N+](=O)[O-] [B-4A.7, Thiamethoxam]
Phaedon cochleariae; [1]
  mortality at 0.8 g/ha: 0%
Myzus persicae; [6]
  mortality at 4 g/ha: 0%
Myzus persicae; [2]
  mortality at 0.8 g/ha: 70%
Tetranychus urticae; [3]
  mortality at 20 g/ha: 0%
Tetranychus urticae; [7]
  mortality at 4 g/ha: 0%

## N#CCNC(=O)c1cnccc1C(F)(F)F [B-9.2, Flonicamid]
Phaedon cochleariae; 20 g/ha
  Mortality in % after 6 days obs.: 0%
Myzus persicae; 20 g/ha
  Mortality in % after 1 day obs.: 0%
  Mortality in % after 6 days obs.: 80%
Tetranychus urticae; [9]
  Mortality in % after 6 days obs.: 0%

## CCOC(=O)OC1=C(c2cc(C)ccc2C)C(=O)N[C@]12CC[C@@H](OC)CC2 [B-23B.1, Spirotetramat]
Myzus persicae; [2]
  mortality at 4 g/ha: 70%
  mortality at 20 g/ha: 70%
Tetranychus urticae; [3]
  mortality at 4 g/ha: 0%
  mortality at 20 g/ha: 0%
Tetranychus urticae; [7]
  mortality at 0.8 g/ha: 70%
Spodoptera frugiperda; [4]
  mortality at 20 g/ha: 0%

## CNC(=O)c1cc(Cl)cc(C)c1NC(=O)c1cc(Br)nn1-c1ncccc1Cl [B-26.1, Chlorantraniliprole (Rynaxypyr)]
Phaedon cochleariae; 0.8 g/ha
  Mortality in % after 6 days obs.: 33%
Phaedon cochleariae; 4 g/ha
  Mortality in % after 2 days obs.: 50%
  Mortality in % after 6 days obs.: 33%
Myzus persicae; 0.8 g/ha
  Mortality in % after 6 days obs.: 0%

## CC(c1ccc(C(F)(F)F)nc1)S(C)(=O)=NC#N (stereo not shown) [B-27.27, Sulfoxaflor]
Phaedon cochleariae; [1]
  mortality at 4 g/ha: 33%
Myzus persicae; [6]
  mortality at 0.8 g/ha: 0%
  mortality at 4 g/ha: 0%
Tetranychus urticae; [7]
  mortality at 4 g/ha: 0%

## Abamectin [B-6.1]
Phaedon cochleariae; 0.16 g/ha
  Mortality in % after 6 days obs.: 33%
Tetranychus urticae; 0.8 g/ha
  Mortality in % after 2 days obs.: 70%

## Ethiprole [B-2B.1]
Myzus persicae; 100 g/ha
  Mortality in % after 6 days obs.: 0%

## Flubendiamide [B-26.3]
Phaedon cochleariae; 4 g/ha
  Mortality in % after 6 days obs.: 0%
Phaedon cochleariae; 20 g/ha
  Mortality in % after 6 days obs.: 50%
Tetranychus urticae; [9]
  Mortality in % after 6 days obs.: 0%
Spodoptera frugiperda; 100 g/ha
  Mortality in % after 2 days obs.: 67%

## Imidacloprid [B-4A.4]
Phaedon cochleariae; 100 g/ha
  Mortality in % after 6 days obs.: 67%
Myzus persicae; 0.8 g/ha
  Mortality in % after 1 day obs.: 0%
Myzus persicae; 4 g/ha
  Mortality in % after 1 day obs.: 70%
Myzus persicae; 20 g/ha
  Mortality in % after 1 day obs.: 80%
Tetranychus urticae; [11]
  Mortality in % after 6 days obs.: 0%

## Methiocarb [B-1A15]
Phaedon cochleariae; 20 g/ha
  Mortality in % after 6 days obs.: 33%
Tetranychus urticae; [9]
  Mortality in % after 6 days obs.: 10%
Tetranychus urticae; 500 g/ha
  Mortality in % after 2 days obs.: 0%
Spodoptera frugiperda; 500 g/ha
  Mortality in % after 2 days obs.: 0%
  Mortality in % after 6 days obs.: 33%

## Spinetoram [B-5.1]
Phaedon cochleariae; 0.16 g/ha
  Mortality in % after 6 days obs.: 0%
Phaedon cochleariae; 0.8 g/ha
  Mortality in % after 6 days obs.: 0%
Phaedon cochleariae; 4 g/ha
  Mortality in % after 6 days obs.: 0%
Tetranychus urticae; 0.8 g/ha
  Mortality in % after 2 days obs.: 30%
Tetranychus urticae; [10]
  Mortality in % after 6 days obs.: 70%
Spodoptera frugiperda; 0.032 g/ha
  Mortality in % after 2 days obs.: 0%
Spodoptera frugiperda; 0.8 g/ha
  Mortality in % after 2 days obs.: 83%

## Spinosad [B-5.2]
Phaedon cochleariae; 0.8 g/ha
  Mortality in % after 6 days obs.: 0%
Phaedon cochleariae; 4 g/ha
  Mortality in % after 6 days obs.: 0%
Phaedon cochleariae; 20 g/ha
  Mortality in % after 2 days obs.: 50%
Tetranychus urticae; 0.8 g/ha
  Mortality in % after 2 days obs.: 0%
Tetranychus urticae; [10]
  Mortality in % after 6 days obs.: 0%
Tetranychus urticae; 4 g/ha
  Mortality in % after 2 days obs.: 0%
Tetranychus urticae; 20 g/ha
  Mortality in % after 2 days obs.: 0%
Spodoptera frugiperda; 0.16 g/ha
  Mortality in % after 2 days obs.: 0%

## Thiacloprid [B-4A.6]
Phaedon cochleariae; 20 g/ha
  Mortality in % after 6 days obs.: 83%
Phaedon cochleariae; 100 g/ha
  Mortality in % after 2 days obs.: 0%
Myzus persicae; 0.16 g/ha
  Mortality in % after 6 days obs.: 0%
Myzus persicae; 0.8 g/ha
  Mortality in % after 1 day obs.: 70%
Myzus persicae; 4 g/ha
  Mortality in % after 6 days obs.: 0%
Tetranychus urticae; [11]
  Mortality in % after 6 days obs.: 0%
Tetranychus urticae; 100 g/ha
  Mortality in % after 2 days obs.: 0%
